Activity calls are given as the source filed them. The rule behind the calls is not given here. Where a SMILES comes first, the peptide text is derived from it. The star is where a group is joined. Boc = CC(C)(C)OC(=O)*
Key:
[1] = biological target: T1, Cholinesterase (Homo sapiens, UniProt P06276); test: Inhibition of BChE (unknown origin) at 5 uM incubated for 10 mins by Ellman's method relative to control
[2] = biological target: T1, Cholinesterase
Description: Inhibition of BChE (unknown origin) incubated for 10 mins by Ellman's method

[3] = biological target: Acetylcholinesterase (Homo sapiens) (UniProt P22303); test: Inhibition of AChE (unknown origin) at 5000 nM by Ellman's method
Acetylcholinesterase (Homo sapiens), sequence (P22303 whole entry): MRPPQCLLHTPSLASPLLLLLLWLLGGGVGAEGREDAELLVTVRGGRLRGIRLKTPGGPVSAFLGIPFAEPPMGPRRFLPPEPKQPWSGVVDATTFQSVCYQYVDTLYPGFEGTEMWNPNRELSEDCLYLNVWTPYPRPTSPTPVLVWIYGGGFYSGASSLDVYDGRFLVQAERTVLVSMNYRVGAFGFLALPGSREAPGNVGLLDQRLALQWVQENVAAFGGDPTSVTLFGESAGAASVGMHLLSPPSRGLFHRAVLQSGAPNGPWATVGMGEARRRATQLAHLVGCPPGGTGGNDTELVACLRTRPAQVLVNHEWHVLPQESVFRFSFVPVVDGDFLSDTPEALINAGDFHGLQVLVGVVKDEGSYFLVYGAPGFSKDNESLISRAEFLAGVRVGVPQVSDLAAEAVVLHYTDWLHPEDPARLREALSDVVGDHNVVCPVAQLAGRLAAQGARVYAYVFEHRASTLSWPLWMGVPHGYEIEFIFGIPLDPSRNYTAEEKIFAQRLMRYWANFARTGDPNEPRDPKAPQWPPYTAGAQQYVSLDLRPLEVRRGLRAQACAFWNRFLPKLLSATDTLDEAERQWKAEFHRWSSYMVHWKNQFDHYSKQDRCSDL

T1 sequence (P06276 whole entry): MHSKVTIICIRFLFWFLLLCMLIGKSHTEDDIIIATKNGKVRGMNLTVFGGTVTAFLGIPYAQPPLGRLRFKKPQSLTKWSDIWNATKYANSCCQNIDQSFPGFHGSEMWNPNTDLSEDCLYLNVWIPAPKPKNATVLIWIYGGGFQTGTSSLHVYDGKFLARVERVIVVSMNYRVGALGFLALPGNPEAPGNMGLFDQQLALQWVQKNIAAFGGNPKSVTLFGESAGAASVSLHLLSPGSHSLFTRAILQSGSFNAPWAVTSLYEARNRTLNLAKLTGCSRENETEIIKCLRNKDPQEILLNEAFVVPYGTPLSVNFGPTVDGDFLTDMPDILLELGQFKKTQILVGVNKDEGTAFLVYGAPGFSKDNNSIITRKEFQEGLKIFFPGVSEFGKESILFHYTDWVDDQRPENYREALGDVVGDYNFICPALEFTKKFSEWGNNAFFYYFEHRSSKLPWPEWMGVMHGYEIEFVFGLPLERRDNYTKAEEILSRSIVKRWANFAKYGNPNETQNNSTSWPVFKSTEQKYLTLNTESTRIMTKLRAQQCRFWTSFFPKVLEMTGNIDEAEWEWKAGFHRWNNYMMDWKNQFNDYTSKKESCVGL

Work on CCC(C)C(NC(=O)C(CC(C)C)NC(=O)C(N)Cc1c[nH]c2ccccc12)C(=O)NC(Cc1c[nH]c2ccccc12)C(=O)O (stereo not drawn) (H-WLIW-OH; configuration not given here) yielded an inhibition [1] of 38.9%.

Work on Cc1ccc(S(=O)(=O)OCC2CCc3[nH]c4ccccc4c3C2)cc1 (stereo not drawn) yielded an inhibition [1] of 73.1%.

Compound Oc1ccc2[nH]c3c(c2c1)C[PH](Cc1cccc2ccccc12)(c1ccccc1)CC3 has an inhibition [1] of 99.7%.

Compound Cc1[nH]c2ccccc2c1C(=O)CC1(O)C(=O)Nc2c(Cl)cc(Cl)cc21 (stereo not drawn) has an inhibition [1] of 47.5%.

In the case of Cn1c(=O)c2nc(CCCCc3nc4ccccc4[nH]3)[nH]c2n(C)c1=O, the inhibition [1] is reported as 25.6%.

Cn1c(=O)c2nc(COCc3nc4c(=O)n(C)c(=O)n(C)c4[nH]3)[nH]c2n(C)c1=O gave an inhibition [1] of 26.5%.

Compound Cc1ccc2nc(CN(CCN(Cc3nc4ccc(C)cc4[nH]3)Cc3nc4ccc(C)cc4[nH]3)Cc3nc4ccc(C)cc4[nH]3)[nH]c2c1 has an inhibition [1] of 41.7%.

Cc1cc(S(=O)(=O)NC2=Nc3cccc4cccc(c34)N2)c(S)cc1Cl was tested, and the inhibition [1] was 50.3%.

COC(=O)[C@H](Cc1c[nH]c2ccccc12)NC(=O)[C@H](Cc1c[nH]c2ccccc12)NC(=O)[C@H](Cc1c[nH]c2ccccc12)NC(=O)OC(C)(C)C (Boc-Trp-Trp-Trp-OMe) was tested, and the inhibition [1] was 79.9%.

With Cc1c(C(=O)CSc2nc3ccccc3[nH]2)c(=O)n(-c2ccccc2)n1C the inhibition [1] was 62.7%.

In the case of N#CC(C(=O)CCc1nc2ccccc2[nH]1)c1c(Cl)cccc1Cl (stereo not drawn), the inhibition [1] is reported as 32.7%.

In the case of Cc1ccc2[nH]/c(=N/S(=O)(=O)c3cc(C)c(Cl)cc3S)[nH]c2c1, the inhibition [1] is reported as 50.9%.

Work on COC(=O)C(Cc1c[nH]c2ccccc12)NC(=O)C(Cc1c[nH]c2ccccc12)NC(=O)C(Cc1c[nH]c2ccccc12)NC(=O)C(Cc1c[nH]c2ccccc12)NC(=O)OC(C)(C)C (stereo not drawn) (Boc-WWWW-OMe; configuration not given here) yielded an inhibition [1] of 51.2%.

For O=C(Nc1ccccc1)c1cc(S(=O)(=O)Nc2nc3cccnc3[nH]2)c(SSc2cc(Cl)c(C(=O)Nc3ccccc3)cc2S(=O)(=O)Nc2nc3cccnc3[nH]2)cc1Cl, the inhibition [1] was 9.9%.

Work on Cn1c(=O)c2[nH]c(CCCc3nc4c(c(=O)n(C)c(=O)n4C)n3C)nc2n(C)c1=O yielded an inhibition [1] of 25.3%.

For Cn1c(=O)c2[nH]c(C(O)C(O)c3nc4c([nH]3)c(=O)n(C)c(=O)n4C)nc2n(C)c1=O (stereo not drawn), the inhibition [1] was 25%.

CCN(CC)C(C)CN1c2ccccc2Sc2ccccc21 (stereo not drawn) [ETHOPROPAZINE] was tested, and the IC50 [2] was 0.21 µM.

In the case of Cn1c(=O)c2nc(CS(=O)(=O)Cc3nc4c(=O)n(C)c(=O)n(C)c4[nH]3)[nH]c2n(C)c1=O, the inhibition [1] is reported as 8%.

In the case of c1ccc2[nH]c(SCCSc3nc4ccccc4[nH]3)nc2c1, the inhibition [1] is reported as 81.2%, the inhibition [3] is reported as “inactive” and the IC50 [2] is reported as 3.03 µM.

Compound O=c1[nH]c2cc(Cl)ccc2n1C1CCN(CCCC(c2ccc(F)cc2)c2ccc(F)cc2)CC1 has an inhibition [1] of 43.2%.

Cc1cc2nc(C(O)C(O)C(O)C(O)c3nc4cc(C)c(C)cc4[nH]3)[nH]c2cc1C (stereo not drawn) was tested, and the inhibition [1] was 4%.

In the case of Cc1ccc(S(=O)(=O)C(C#N)(Cc2c[nH]c3ccccc23)Cc2c[nH]c3ccccc23)cc1, the inhibition [1] is reported as 48.5%.

For Cc1cc(S(=O)(=O)Nc2nc3ccccc3[nH]2)c(S)cc1Cl, the inhibition [1] was 48.5%.

Cn1c(=O)c2[nH]c(CCc3nc4c([nH]3)c(=O)n(C)c(=O)n4C)nc2n(C)c1=O was tested, and the inhibition [1] was 17.9%.

With COC(=O)C(Cc1c[nH]c2ccccc12)NC(=O)C(Cc1c[nH]c2ccccc12)NC(=O)OCc1ccccc1 (stereo not drawn) the inhibition [1] was 92.9%.

In the case of Cc1cc(CSCCc2nc3ccccc3[nH]2)c(O)c(CSCCc2nc3ccccc3[nH]2)c1, the inhibition [1] is reported as 101%, the inhibition [3] is reported as “inactive” and the IC50 [2] is reported as 0.032 µM.

For CCn1c(CCCc2nc3c(=O)n(C)c(=O)n(C)c3[nH]2)nc2c1c(=O)n(C)c(=O)n2C, the inhibition [1] was 15.4%.

Cc1cc(S(=O)(=O)N=c2[nH]c3ccccc3[nH]2)c(SCc2ccccc2)cc1Cl gave an inhibition [1] of 65.7%.

CN(C)c1ccc(C=CC(=O)c2nc3ccccc3[nH]2)cc1 gave an inhibition [1] of 43.2%.

Cc1cc(S(=O)(=O)N=c2[nH]c3cccc(C)c3[nH]2)c(SCc2ccccc2)cc1Cl was tested, and the inhibition [1] was 55.6%.

O=c1[nH]nc(Cc2ccc(Cl)cc2)n1N=Cc1c[nH]c2ccccc12 was tested, and the inhibition [1] was 20.7%.

For Cc1[nH]c2ccccc2c1C1=CC(c2c(C)[nH]c3ccccc23)CCC1 (stereo not drawn), the inhibition [1] was 75%.

Compound COC(=O)C(Cc1c[nH]c2ccccc12)NC(=O)C(Cc1c[nH]c2ccccc12)NC(=O)C(Cc1c[nH]c2ccccc12)NC(=O)C(Cc1c[nH]c2ccccc12)NC(=O)C(Cc1c[nH]c2ccccc12)NC(=O)C(Cc1c[nH]c2ccccc12)NC(=O)OC(C)(C)C (stereo not drawn) (Boc-WWWWWW-OMe; configuration not given here) has an inhibition [1] of 46%.

Cc1nc(C(N)=S)sc1C(=O)CC(=O)C(=O)Nc1nc2ccccc2[nH]1 gave an inhibition [1] of 43.5%.

Work on COc1ccc(OC)c2[nH]c(CCc3nc4c(OC)ccc(OC)c4[nH]3)nc12 yielded an inhibition [1] of 16.7%.

Cn1c(=O)c2[nH]c(CCCc3nc4c([nH]3)c(=O)n(C)c(=O)n4C)nc2n(C)c1=O gave an inhibition [1] of 19.1%.

In the case of c1ccc2c(CN3CCN(Cc4c[nH]c5ccccc45)CC3)c[nH]c2c1, the inhibition [1] is reported as 76.5%, the inhibition [3] is reported as “inactive” and the IC50 [2] is reported as 0.987 µM.

c1ccc2[nH]c(CN(CCN(Cc3nc4ccccc4[nH]3)Cc3nc4ccccc4[nH]3)Cc3nc4ccccc4[nH]3)nc2c1 was tested, and the inhibition [1] was 92%, the inhibition [3] was “inactive” and the IC50 [2] was 1.36 µM.

In the case of O=S(=O)(Cc1nc2ccccc2[nH]1)Cc1nc2ccccc2[nH]1, the inhibition [1] is reported as 62%.

Fc1ccc2[nH]c3c(c2c1)C[PH](Cc1cccc2ccccc12)(c1ccccc1)CC3 gave an inhibition [1] of 97.5%.

— ChEMBL document CHEMBL4406906, “Discovery of potent and selective butyrylcholinesterase inhibitors through the use of pharmacophore-based screening” (Bioorg Med Chem Lett, 2019)
